{"source": "patent US20110040086A1", "about": "“Novel Beta-Lactam Antibiotics, Methods for Their Production, and Their Use” (DRITTE PATENTPORTFOLIO BETEILIGUNGSGESELLSCHAFT MB, priority 2007, published 2011)", "key": {"S. aureus 526": {"tested_on": "S. aureus 526", "test": "agar diffusion test (Test System II, multi-resistant germs)", "assay_type": "cell-based, Staphylococcus aureus", "set-up": "key: r = resistant (no detectable zone of inhibition)", "in_short": "(§1)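 Discs loaded with 10, 50 or 100 μg compound (dissolved in methanol or distilled water) placed on Müller-Hinton agar II inoculated with McFarland 0.5 suspension. Incubated 18-20 h at 37 °C. Inhibition zone diameter read as activity.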"}, "S. aureus 34289": {"tested_on": "S. aureus 34289", "test": "agar diffusion test (Test System II, multi-resistant germs)", "assay_type": "cell-based, Staphylococcus aureus", "set-up": "key: r = resistant (no detectable zone of inhibition)", "in_short": "as §1"}, "S. aureus 36881": {"tested_on": "S. aureus 36881", "test": "agar diffusion test (Test System II, multi-resistant germs)", "assay_type": "cell-based, Staphylococcus aureus", "set-up": "key: r = resistant (no detectable zone of inhibition)", "in_short": "as §1"}, "S. aureus 39105": {"tested_on": "S. aureus 39105", "test": "agar diffusion test (Test System II, multi-resistant germs)", "assay_type": "cell-based, Staphylococcus aureus", "set-up": "key: r = resistant (no detectable zone of inhibition)", "in_short": "as §1"}, "S. aureus 520": {"tested_on": "S. aureus 520", "test": "agar diffusion test (Test System II, multi-resistant germs)", "assay_type": "cell-based, Staphylococcus aureus", "set-up": "key: r = resistant (no detectable zone of inhibition)", "in_short": "as §1"}, "[1]": {"tested_on": "S. aureus North Germany strain", "test": "agar diffusion test (Test System II, multi-resistant germs)", "assay_type": "cell-based, Staphylococcus aureus", "set-up": "key: r = resistant (no detectable zone of inhibition)", "in_short": "as §1"}, "S. aureus 33490": {"tested_on": "S. aureus 33490", "test": "agar diffusion test (Test System II, multi-resistant germs)", "assay_type": "cell-based, Staphylococcus aureus", "set-up": "key: r = resistant (no detectable zone of inhibition)", "in_short": "as §1"}, "[2]": {"tested_on": "Staphylococcus aureus 315", "test": "agar diffusion test (Test System II, multi-resistant germs)", "assay_type": "cell-based", "set-up": "key: r = resistant (no detectable zone of inhibition)", "in_short": "as §1"}, "[3]": {"tested_on": "Enterococcus faecalis 769", "test": "agar diffusion test (Test System II, multi-resistant germs)", "assay_type": "cell-based", "set-up": "key: r = resistant (no detectable zone of inhibition)", "in_short": "as §1"}, "B. subtilis AWD 166": {"tested_on": "B. subtilis AWD 166", "test": "agar diffusion test (antimicrobial effect)", "assay_type": "cell-based, Bacillus subtilis", "in_short": "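Nutrient agar seeded with B. subtilis AWD 166 to give dense non-confluent colonies; compounds in methanol or distilled water applied to discs at 10, 50, 100 μg. After 20 h at 37 °C, inhibition zone diameter measured in mm.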"}, "[4]": {"tested_on": "Escherichia coli SBUG 1135", "test": "agar diffusion test (Test System 1, antimicrobial effect)", "assay_type": "cell-based", "set-up": "key: r = resistant (no detectable zone of inhibition)", "in_short": "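E. coli SBUG 1135 grown 17 h at 37° C, 180 rpm, diluted 1:100 and seeded in nutrient agar at ~10^6 cells. Discs loaded with 10, 50 or 100 μg compound (methanol or water); inhibition-zone diameter (mm) read after 20 h at 37° C.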"}, "[5]": {"tested_on": "Bacillus megaterium SBUG 1152", "test": "agar diffusion test (Test System 1, antimicrobial effect)", "assay_type": "cell-based", "in_short": "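B. megaterium SBUG 1152 grown overnight (17 h, 37° C., 180 rpm) and seeded at 10^6 cells per 10 ml nutrient agar. Compound at 10, 50 and 100 μg, dissolved in methanol or water, applied to paper discs. Inhibition-zone diameter (mm) read after 20 h at 37° C.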"}, "[6]": {"tested_on": "Staphylococcus aureus ATCC 6538", "test": "mouse infected with Staphylococcus aureus infection model (survival)", "assay_type": "in vivo, BALB/c mice", "settings": "2 × 0.5 mg (25 mg/kg) i.p.", "in_short": "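BALB/c mice, at least 3 per group, made neutropenic with cyclophosphamide i.p. (250 mg/kg day 0, 100 mg/kg day 2). Infected i.p. on day 3 with 10 μl/g of S. aureus suspension at OD550 0.6 (ca. 10^10-10^12 CFU). Antibiotic given i.p. in PBS with 3% DMSO 30 min post-infection, then repeated; survival recorded.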"}, "S. epidermidis 125": {"tested_on": "S. epidermidis 125", "test": "agar diffusion test (Test System II, multi-resistant germs)", "assay_type": "cell-based, Staphylococcus epidermidis", "set-up": "key to Diameter of zone of inhibition: r = resistant (no detectable zone of inhibition)", "in_short": "as §1"}}}
{"substance": "7-{2-[2-(2-hydroxyethylcarbamoyl)-3,6-dioxocyclohexa-1,4-dienylamino]-2-phenyl-acetylamino}-desacetoxycephalosporanic acid [1e]", "values": [{"measurement": "Diameter of zone of inhibition", "setting": "S. aureus 526; Quantity n 0.029", "result": "r"}, {"measurement": "Diameter of zone of inhibition", "setting": "S. aureus 526; Quantity n 0.14", "result": "r"}, {"measurement": "Diameter of zone of inhibition", "setting": "S. aureus 526; Quantity n 0.29", "result": "r"}, {"measurement": "Diameter of zone of inhibition", "setting": "S. aureus 34289; Quantity n [mol] 0.029", "result": "r"}, {"measurement": "Diameter of zone of inhibition", "setting": "S. aureus 34289; Quantity n [mol] 0.14", "result": "r"}, {"measurement": "Diameter of zone of inhibition", "setting": "S. aureus 34289; Quantity n [mol] 0.29", "result": "r"}, {"measurement": "Diameter of zone of inhibition", "setting": "S. aureus 36881; Quantity n 0.029", "result": "r"}, {"measurement": "Diameter of zone of inhibition", "setting": "S. aureus 36881; Quantity n 0.14", "result": "r"}, {"measurement": "Diameter of zone of inhibition", "setting": "S. aureus 36881; Quantity n 0.29", "result": 14, "unit": "mm"}, {"measurement": "Diameter of zone of inhibition", "setting": "S. aureus 39105; Quantity n 0.029", "result": "r"}, {"measurement": "Diameter of zone of inhibition", "setting": "S. aureus 39105; Quantity n 0.14", "result": "r"}, {"measurement": "Diameter of zone of inhibition", "setting": "S. aureus 39105; Quantity n 0.29", "result": 14, "unit": "mm"}, {"measurement": "Diameter of zone of inhibition", "setting": "S. aureus 520; Quantity n [mol] 0.029", "result": "r"}, {"measurement": "Diameter of zone of inhibition", "setting": "S. aureus 520; Quantity n [mol] 0.14", "result": "r"}, {"measurement": "Diameter of zone of inhibition", "setting": "S. aureus 520; Quantity n [mol] 0.29", "result": "r"}, {"measurement": "Diameter of zone of inhibition", "setting": "[1]; Quantity n 0.029", "result": "r"}, {"measurement": "Diameter of zone of inhibition", "setting": "[1]; Quantity n 0.14", "result": 10, "unit": "mm"}, {"measurement": "Diameter of zone of inhibition", "setting": "[1]; Quantity n 0.29", "result": 16, "unit": "mm"}, {"measurement": "Diameter of zone of inhibition", "setting": "S. aureus 33490; Quantity n [μmol] 0.029", "result": 8, "unit": "mm"}, {"measurement": "Diameter of zone of inhibition", "setting": "S. aureus 33490; Quantity n [μmol] 0.14", "result": 16, "unit": "mm"}, {"measurement": "Diameter of zone of inhibition", "setting": "S. aureus 33490; Quantity n [μmol] 0.29", "result": 20, "unit": "mm"}, {"measurement": "Diameter of zone of inhibition", "setting": "[2]; Quantity n 0.029", "result": "r"}, {"measurement": "Diameter of zone of inhibition", "setting": "[2]; Quantity n 0.14", "result": "r"}, {"measurement": "Diameter of zone of inhibition", "setting": "[2]; Quantity n 0.29", "result": 12, "unit": "mm"}, {"measurement": "Diameter of zone of inhibition", "setting": "[3]; Quantity n 0.029", "result": "r"}, {"measurement": "Diameter of zone of inhibition", "setting": "[3]; Quantity n 0.14", "result": "r"}, {"measurement": "Diameter of zone of inhibition", "setting": "[3]; Quantity n 0.29", "result": "r"}, {"measurement": "Diameter of zone of inhibition", "setting": "B. subtilis AWD 166; Quantity n 0.029", "result": 22, "unit": "mm"}, {"measurement": "Diameter of zone of inhibition", "setting": "B. subtilis AWD 166; Quantity n 0.14", "result": 30, "unit": "mm"}, {"measurement": "Diameter of zone of inhibition", "setting": "B. subtilis AWD 166; Quantity n 0.29", "result": 32, "unit": "mm"}, {"measurement": "Diameter of zone of inhibition", "setting": "[4]; Quantity n 0.029", "result": "r^2"}, {"measurement": "Diameter of zone of inhibition", "setting": "[4]; Quantity n 0.14", "result": 16, "unit": "mm"}, {"measurement": "Diameter of zone of inhibition", "setting": "[4]; Quantity n 0.29", "result": 18, "unit": "mm"}, {"measurement": "Diameter of zone of inhibition", "setting": "[5]; Quantity n 0.029", "result": 20, "unit": "mm"}, {"measurement": "Diameter of zone of inhibition", "setting": "[5]; Quantity n 0.14", "result": 28, "unit": "mm"}, {"measurement": "Diameter of zone of inhibition", "setting": "[5]; Quantity n 0.29", "result": 32, "unit": "mm"}, {"measurement": "Survival/tested mice n/n", "setting": "[6]", "result": "3/3"}, {"measurement": "Diameter of zone of inhibition", "setting": "S. epidermidis 125; Quantity n 0.029", "result": "r"}, {"measurement": "Diameter of zone of inhibition", "setting": "S. epidermidis 125; Quantity n 0.14", "result": 24, "unit": "mm"}, {"measurement": "Diameter of zone of inhibition", "setting": "S. epidermidis 125; Quantity n 0.29", "result": 28, "unit": "mm"}]}
